These are literature values, as cited in patent US20150196488A1, “Topical Foam Composition” (priority 2009, published 2015).

For the data set the following is noted: alcohol, ethyl acetate, chloroform and toluene.

For `CO[C@H]1/C=C/O[C@@]2(C)Oc3c(C)c(O)c4c(O)c(c5c(nc6cc(C)ccn65)c4c3C2=O)NC(=O)/C(C)=C\C=C\[C@H](C)[C@H](O)[C@@H](C)[C@@H](O)[C@@H](C)[C@H](OC(C)=O)[C@@H]1C` [Rifaximin, (2S,16Z,18E,20S,21S,22R,23R,24R,25S,26S,27S,28E)-5,6,21,23,25-pentahydroxy-27-methoxy-2,4,11,16,20,22,24,26-octamethyl-2,7-(epoxypentadeca-[1,11,13]trienimino)benzofuro[4,5-e]pyrido[1,2-a]-benzimida-zole-1,15(2H)-dione,25-acetate], the “solubility in organic solvents” value is recorded as “soluble”.
